Experimental data as given in PubChem BioAssay (NCI).
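Grown in 96-well plates, cells were treated for 48 hours with each compound at five concentrations. Insufficient inhibition: endpoint recorded as highest concentration tested. Abbreviation: GI50, concentration required for 50% inhibition of growth. TGI denotes the concentration required for complete inhibition of growth.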

Assays:
Test in all cases: NCI-60 cell line screen, 48 h
[1] = system: A549 NSCLC
[2] = system: COLO 205 colon
[3] = system: HCT-116 colon
[4] = system: HCT-15 colon
[5] = system: HT29 colon
[6] = system: IGROV1 ovarian
[7] = system: NCI-H460 lung
[8] = system: OVCAR-8 ovarian
[9] = system: SF-268 CNS
[10] = system: UACC-257 melanoma

Row | Compound | TGI [1] [µM] | TGI [2] [µM] | TGI [3] [µM] | TGI [4] [µM] | TGI [5] [µM] | TGI [6] [µM] | TGI [7] [µM] | TGI [8] [µM] | TGI [9] [µM] | TGI [10] [µM] | GI50 [1] [µM] | GI50 [2] [µM] | GI50 [3] [µM] | GI50 [4] [µM] | GI50 [5] [µM] | GI50 [6] [µM] | GI50 [7] [µM] | GI50 [8] [µM] | GI50 [9] [µM] | GI50 [10] [µM]
1 | COc1cc(C(=O)O)c([N+](=O)[O-])c(OC)c1OC | > 100 | > 100 | > 100 | > 100 | > 100 | > 100 | > 100 | > 100 | > 100 | > 100 |  |  |  |  |  |  |  |  |  | 
2 | CC(=O)c1ccc(Nc2cc(-n3ccnc3)nc3ccccc23)cc1 | > 100 | > 100 | > 100 | > 100 | > 100 | > 100 | > 100 | > 100 | 67.7 | > 100 | 35.3 | > 100 | 30.5 | 34.2 | 60.7 | > 100 | 34.2 | 50.5 | 14.8 | 33.4
3 | O=[N+]([O-])c1ccc(N/N=C\c2cc(Cl)ccc2O)nc1 | 16.1 | > 100 | 12.5 | > 100 | > 100 | 4.69 | 13.6 | 14.1 | 22.9 | 7.38 | 2.79 | 5.06 | 1.2 | 0.735 | 4.9 | 1.2 | 1.66 | 0.97 | 0.595 | 1.82
4 | NC(N)=NC(CC(=O)O)c1ccccc1 (stereo not given) | > 100 | > 100 | > 100 | > 100 | > 100 | > 100 | > 100 | > 100 | > 100 | > 100 |  |  |  |  |  |  |  |  |  | 
5 | C[C@H]1[C@H](OC(=O)CCC(=O)O)O[C@@H]2O[C@]3(C)CC[C@H]4[C@H](C)CC[C@@H]1[C@@]24OO3 | 18.3 | 1.37 | 11.4 | 16.1 | 16.8 | 5.91 | 41.6 | > 46.4 | 43.2 | > 100 | 0.959 | 0.341 | 0.129 | 0.107 | 0.627 | 1.17 | 1.24 | 0.445 | 1.04 | 3.36
6 | S=c1[nH]nc(COc2ccc(Cl)cc2)o1 | > 100 | > 100 | > 100 | 98.6 | > 100 | > 100 | > 100 | > 100 | > 100 | > 100 |  |  |  |  |  |  |  |  |  | 
7 | C/C(=N\N(C)C)c1sc(-n2nc(-c3ccccc3)cc2-c2ccccc2)nc1C | > 100 | > 100 | > 100 | > 100 | > 100 | > 100 | > 100 | > 100 | > 100 | > 100 |  |  |  |  |  |  |  |  |  | 
